In article PMC10648875 (Antimicrobial Agents and Chemotherapy, 2023):
In brackets after ≈: the same amount, converted by molar mass. Several values for one entry are separate records, joined by “and”; a condition that tells them apart may be missing. Equal entries are not always repeated. Where two headings read alike, the source gives them in different places.

Assays:
OXA-48 = OXA-48 (Klebsiella pneumoniae, UniProt Q6XEC0); test: Ki app of β-lactamase inhibition, purified enzyme; format: biochemical, Enterobacterales; details: 10-minute preincubation; nitrocefin substrate
Chain of OXA-48 (Q6XEC0 23-265 limits assumed): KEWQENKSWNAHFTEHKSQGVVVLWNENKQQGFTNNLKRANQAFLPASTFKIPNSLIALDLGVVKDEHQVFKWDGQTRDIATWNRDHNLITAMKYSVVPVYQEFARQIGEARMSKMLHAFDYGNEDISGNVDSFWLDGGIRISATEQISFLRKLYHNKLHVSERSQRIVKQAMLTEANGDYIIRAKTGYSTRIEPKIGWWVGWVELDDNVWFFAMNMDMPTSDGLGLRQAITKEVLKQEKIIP
Experimental: (§1) The majority of purified β-lactamase enzymes used in the study were either expressed and purified internally ([35]) or obtained from Emerald Biostructures (Bainbridge Island, WA, USA). L1 enzyme was purified as described in reference ([36]).
(§2) Enzymes were mixed with BLIs at concentrations varying from 160 to 0.0027 µM in 50-mM Na-phosphate pH7.0, 0.1-mg/mL bovide serum albumin (BSA) (buffer A; 20-µM ZnCl2 was also added for all metalloenzymes) and incubated for 10 minutes at 37°C. Nitrocefin (50 µM) (10 µM for SHV-12) or 100 µM of imipenem (prewarmed at 37°C for 10 minutes) was added, and substrate cleavage profiles were recorded at 37°C at 490 nm every 10 seconds for 10 minutes or at 294 nm every 30 seconds for 1 hour for nitrocefin and imipenem, respectively. […] Ki app values (Ki for metalloenzymes) were calculated by the method of Waley ([37]).

[1] = target: T1, VIM-1 in whole cells of KP1015 (OmpK36 GD repeat) (Pseudomonas aeruginosa, UniProt A0A0F7KYQ8); test: cell-based; design: species or system K. pneumoniae
T1 construct: endogenous in cells; host or cells: K. pneumoniae KP1015

P99 = P99 (Enterobacter cloacae, UniProt P05364); test: Ki app of β-lactamase inhibition, purified enzyme; format: biochemical; details: 10-minute preincubation; nitrocefin substrate; read-out: Ki app
Chain of P99 (P05364 21-381): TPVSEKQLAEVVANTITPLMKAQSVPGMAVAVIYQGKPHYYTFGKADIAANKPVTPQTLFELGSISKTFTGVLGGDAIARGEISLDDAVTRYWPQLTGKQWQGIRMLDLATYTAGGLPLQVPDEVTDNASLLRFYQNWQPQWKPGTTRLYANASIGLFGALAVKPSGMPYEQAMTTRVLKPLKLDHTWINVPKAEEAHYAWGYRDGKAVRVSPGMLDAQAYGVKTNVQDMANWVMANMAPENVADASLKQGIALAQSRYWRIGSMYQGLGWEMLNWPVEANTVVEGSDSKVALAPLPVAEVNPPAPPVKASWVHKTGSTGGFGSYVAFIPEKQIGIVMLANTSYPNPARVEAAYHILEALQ
Experimental: as §1, §2

CTX-M-15 = CTX-M-15 (Escherichia coli, UniProt Q9EXV5); test: Ki app of β-lactamase inhibition, purified enzyme; format: biochemical; details: 10-minute preincubation; nitrocefin substrate
Chain of CTX-M-15 (Q9EXV5 entry or part of it): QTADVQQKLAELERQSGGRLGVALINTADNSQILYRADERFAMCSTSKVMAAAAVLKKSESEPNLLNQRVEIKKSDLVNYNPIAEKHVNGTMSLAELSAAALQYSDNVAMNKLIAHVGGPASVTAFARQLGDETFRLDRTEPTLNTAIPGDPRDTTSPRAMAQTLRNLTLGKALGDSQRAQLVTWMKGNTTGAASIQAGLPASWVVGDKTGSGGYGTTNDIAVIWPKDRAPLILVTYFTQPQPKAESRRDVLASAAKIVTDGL
Experimental: as §1, §2

OXA-23 = OXA-23 (Acinetobacter baumannii, UniProt Q9L4P2); test: Ki app of β-lactamase inhibition, purified enzyme; format: biochemical; details: 10-minute preincubation; nitrocefin substrate
Chain of OXA-23 (Q9L4P2 18-273): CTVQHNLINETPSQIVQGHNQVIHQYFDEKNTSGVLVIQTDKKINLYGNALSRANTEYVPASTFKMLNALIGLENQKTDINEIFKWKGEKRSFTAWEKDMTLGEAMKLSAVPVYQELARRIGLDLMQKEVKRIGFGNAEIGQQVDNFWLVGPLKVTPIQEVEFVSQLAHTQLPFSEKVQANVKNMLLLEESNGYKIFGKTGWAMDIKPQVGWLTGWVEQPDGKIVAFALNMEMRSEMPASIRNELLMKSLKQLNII
Experimental: as §1, §2

PDC1 = PDC1 (Pseudomonas aeruginosa, UniProt P24735); test: Ki app of β-lactamase inhibition, purified enzyme; format: biochemical; details: 10-minute preincubation; nitrocefin substrate
Chain of PDC1 (P24735 27-397): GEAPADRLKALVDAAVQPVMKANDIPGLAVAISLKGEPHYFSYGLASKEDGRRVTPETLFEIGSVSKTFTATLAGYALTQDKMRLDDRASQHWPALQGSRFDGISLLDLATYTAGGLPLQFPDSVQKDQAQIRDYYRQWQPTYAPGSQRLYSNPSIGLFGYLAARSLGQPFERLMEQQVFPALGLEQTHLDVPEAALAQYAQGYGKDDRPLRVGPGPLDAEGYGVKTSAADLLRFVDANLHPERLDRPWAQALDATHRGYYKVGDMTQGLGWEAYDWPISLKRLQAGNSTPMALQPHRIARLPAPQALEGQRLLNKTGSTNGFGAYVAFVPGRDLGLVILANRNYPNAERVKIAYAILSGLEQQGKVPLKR
Experimental: as §1, §2

CTX-M-14 = CTX-M-14 (Escherichia coli, UniProt Q9L5C7); test: Ki app of β-lactamase inhibition, purified enzyme; format: biochemical; details: 10-minute preincubation; nitrocefin substrate
Chain of CTX-M-14 (Q9L5C7 entry or part of it): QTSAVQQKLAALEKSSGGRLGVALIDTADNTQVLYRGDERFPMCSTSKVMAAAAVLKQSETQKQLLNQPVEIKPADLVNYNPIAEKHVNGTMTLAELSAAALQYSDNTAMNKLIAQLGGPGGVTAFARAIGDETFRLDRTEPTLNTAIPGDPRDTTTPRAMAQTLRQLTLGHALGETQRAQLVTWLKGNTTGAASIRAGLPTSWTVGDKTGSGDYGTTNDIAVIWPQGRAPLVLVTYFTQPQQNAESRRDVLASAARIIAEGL
Experimental: as §1, §2

[2] = tested on: PAM4821 producing CTX-M-25; test: MIC, engineered isogenic strain; format: cell-based, P. aeruginosa; details: CTX-M-25, class A; BLIs at fixed 4 µg/mL
PAM4888 producing IMP-4 = test: MIC, engineered isogenic strain; format: cell-based, P. aeruginosa; details: IMP-4, class B; BLIs at fixed 4 µg/mL
PAM4875 producing OXA-23 = test: MIC, engineered isogenic strain; format: cell-based, P. aeruginosa; details: OXA-23, class D; BLIs at fixed 4 µg/mL
PAM4196 producing IMP-13 = test: MIC, engineered isogenic strain; format: cell-based, P. aeruginosa; details: IMP-13, class B; BLIs at fixed 4 µg/mL
PAM4887 producing IMP-1 = test: MIC, engineered isogenic strain; format: cell-based, P. aeruginosa; details: IMP-1, class B; BLIs at fixed 4 µg/mL
PAM4744 producing SME-2 = test: MIC, engineered isogenic strain; format: cell-based, P. aeruginosa; details: SME-2, class A; BLIs at fixed 4 µg/mL
PAM4745 producing P99 = test: MIC, engineered isogenic strain; format: cell-based, P. aeruginosa; details: P99, class C; BLIs at fixed 4 µg/mL
[3] = tested on: ESBL-producing Enterobacterales; test: organism not typed; format: cell-based; details: for MIC50: read-out: MIC50; for MIC90: read-out: MIC90
PAM4175 (no β-lactamase) = test: MIC, engineered isogenic strain; format: cell-based, P. aeruginosa; details: BLIs at fixed 4 µg/mL
PAM4217 producing OXA-48 = test: MIC, engineered isogenic strain; format: cell-based, P. aeruginosa; details: OXA-48, class D; BLIs at fixed 4 µg/mL
PAM4879 producing CcrA = test: MIC, engineered isogenic strain; format: cell-based, P. aeruginosa; details: class B, BLIs at fixed 4 µg/mL
PAM4798 producing VIM-2 = test: MIC, engineered isogenic strain; format: cell-based, P. aeruginosa; details: VIM-2, class B; BLIs at fixed 4 µg/mL
PAM4186 producing CMY-2 = test: MIC, engineered isogenic strain; format: cell-based, P. aeruginosa; details: CMY-2, class C; BLIs at fixed 4 µg/mL
PAM4800 producing GES-19 = test: MIC, engineered isogenic strain; format: cell-based, P. aeruginosa; details: GES-19, class A; BLIs at fixed 4 µg/mL
PAM4878 producing TEM-10 = test: MIC, engineered isogenic strain; format: cell-based, P. aeruginosa; details: TEM-10, class A; BLIs at fixed 4 µg/mL
PAM4890 producing IMP-19 = test: MIC, engineered isogenic strain; format: cell-based, P. aeruginosa; details: IMP-19, class B; BLIs at fixed 4 µg/mL
PAM4198 producing IMP-15 = test: MIC, engineered isogenic strain; format: cell-based, P. aeruginosa; details: IMP-15, class B; BLIs at fixed 4 µg/mL
PAM4827 producing OXA-1 = test: MIC, engineered isogenic strain; format: cell-based, P. aeruginosa; details: OXA-1, class D; BLIs at fixed 4 µg/mL
PAM4179 producing NDM-1 = test: MIC, engineered isogenic strain; format: cell-based, P. aeruginosa; details: NDM-1, class B; BLIs at fixed 4 µg/mL
[4] = tested on: ESBL-producing and carbapenem-resistant Enterobacterales (All, N = 1028); test: organism not typed; format: cell-based; details: for MIC50: read-out: MIC50; for MIC90: read-out: MIC90
[5] = tested on: PAM4884 producing ADC-181; test: MIC, engineered isogenic strain; format: cell-based, P. aeruginosa; details: ADC-181, class C; BLIs at fixed 4 µg/mL
PAM4825 producing MIR-1 = test: MIC, engineered isogenic strain; format: cell-based, P. aeruginosa; details: MIR-1, class C; BLIs at fixed 4 µg/mL

SMILES | Ki (OXA-48) | Ki (P99) | Ki (CTX-M-15) | Ki (OXA-23) | Ki (PDC1) | Ki (CTX-M-14) | MIC [2] | MIC (PAM4888 producing IMP-4) | MIC (PAM4875 producing OXA-23) | MIC (PAM4196 producing IMP-13) | MIC (PAM4887 producing IMP-1) | MIC (PAM4744 producing SME-2) | MIC (PAM4745 producing P99) | MIC50 [3] | MIC90 [3] | MIC (PAM4175 (no β-lactamase)) | MIC (PAM4217 producing OXA-48) | MIC (PAM4879 producing CcrA) | MIC (PAM4798 producing VIM-2) | MIC (PAM4186 producing CMY-2) | also measured
NCCN[C@H]1CC[C@H](CC(=O)N[C@H]2Cc3cccc(C(=O)O)c3OB2O)CC1 [Taniborbactam, taniborbactam] | 6.1 ± 0.7 nM | 2.4 ± 0.5 nM | 2.6 ± 0.1 nM | > 20000 nM | 22 nM | 1.2 ± 0.5 nM |  |  |  |  |  |  |  |  |  |  |  |  |  |  | IC50 ([1]; read-out: IC50 of β-lactamase inhibition in whole cells): 39100 ± 8200 nM
CO/N=C(\C(=O)N[C@@H]1C(=O)N2C(C(=O)[O-])=C(C[N+]3(C)CCCC3)CS[C@H]12)c1csc(N)n1 [FEP, cefepime] |  |  |  |  |  |  | > 64 µg/mL | 32 µg/mL (≈ 66.6 µM) | 2 µg/mL (≈ 4.16 µM) | 16 µg/mL (≈ 33.3 µM) | 64 µg/mL (≈ 133 µM) | 0.5 µg/mL (≈ 1.04 µM) | 8 µg/mL (≈ 16.6 µM) | 16 µg/mL (≈ 33.3 µM) | > 64 µg/mL | 0.25 µg/mL (≈ 0.52 µM) | 0.5 µg/mL (≈ 1.04 µM) | 16 µg/mL (≈ 33.3 µM) | 8 µg/mL (≈ 16.6 µM) | 1 µg/mL (≈ 2.08 µM) | MIC (PAM4800 producing GES-19): 64 µg/mL (≈ 133 µM); MIC (PAM4878 producing TEM-10): 16 µg/mL (≈ 33.3 µM); MIC (PAM4890 producing IMP-19): 64 µg/mL (≈ 133 µM); MIC (PAM4198 producing IMP-15): 16 µg/mL (≈ 33.3 µM); MIC (PAM4827 producing OXA-1): 1 µg/mL (≈ 2.08 µM); MIC (PAM4179 producing NDM-1): > 64 µg/mL; MIC50 [4]: 64 µg/mL (≈ 133 µM); MIC90 [4]: > 64 µg/mL; MIC [5]: 0.5 µg/mL (≈ 1.04 µM); MIC (PAM4825 producing MIR-1): 2 µg/mL (≈ 4.16 µM)
O=C(O)c1c(F)ccc2c1OB(O)[C@@H]1C[C@H]21 [Xeruborbactam, xeruborbactam] | 0.22 ± 0.08 nM | 8 nM and 8.5 nM | 0.37 ± 0.01 nM | 0.74 ± 0.28 nM | 14 nM | 0.29 ± 0.06 nM |  |  |  |  |  |  |  |  |  |  |  |  |  |  | IC50 [1]: 70000 ± 13400 nM
C[C@@H](O)[C@H]1C(=O)N2C(C(=O)O)=C(S[C@@H]3CN[C@H](C(=O)N(C)C)C3)[C@H](C)[C@H]12 [MEM, meropenem] |  |  |  |  |  |  | 0.5 µg/mL (≈ 1.3 µM) | 4 µg/mL (≈ 10.4 µM) | 2 µg/mL (≈ 5.22 µM) | 1 µg/mL (≈ 2.61 µM) | 4 µg/mL (≈ 10.4 µM) | 8 µg/mL (≈ 20.9 µM) | 1 µg/mL (≈ 2.61 µM) | ≤ 0.03 µg/mL | 0.06 µg/mL (≈ 0.156 µM) | 0.125 ^ a | 4 µg/mL (≈ 10.4 µM) | 2 µg/mL (≈ 5.22 µM) | 8 µg/mL (≈ 20.9 µM) | 0.25 µg/mL (≈ 0.652 µM) | MIC (PAM4800 producing GES-19): 1 µg/mL (≈ 2.61 µM); MIC (PAM4878 producing TEM-10): 0.125 µg/mL (≈ 0.326 µM); MIC (PAM4890 producing IMP-19): 1 µg/mL (≈ 2.61 µM); MIC (PAM4198 producing IMP-15): 1 µg/mL (≈ 2.61 µM); MIC (PAM4827 producing OXA-1): ≤ 0.06 µg/mL; MIC (PAM4179 producing NDM-1): 32 µg/mL (≈ 83.4 µM); MIC50 [4]: 0.5 µg/mL (≈ 1.3 µM); MIC90 [4]: > 64 µg/mL; MIC [5]: 0.125 µg/mL (≈ 0.326 µM); MIC (PAM4825 producing MIR-1): 0.5 µg/mL (≈ 1.3 µM)
